# Results taken from patent US10301284B2, “Therapeutic inhibitory compounds” (LifeSci Pharmaceuticals, Inc., priority 2016, dated 2019).
# Read-outs that look alike come from different tables or passages of the source.
# Assays:
# human Plasma Kallikrein [1] = molecular target: T1, human Plasma Kallikrein (Homo sapiens (Human), UniProt P03952); assay: In vitro enzyme inhibition of human plasma kallikrein (Pro-Phe-Arg-AMC cleavage); format: biochemical; conditions: human plasma kallikrein, PFR-AMC substrate, 37° C.; read-out: hPK IC50
# T1 sequence (P03952 391-638 limits assumed): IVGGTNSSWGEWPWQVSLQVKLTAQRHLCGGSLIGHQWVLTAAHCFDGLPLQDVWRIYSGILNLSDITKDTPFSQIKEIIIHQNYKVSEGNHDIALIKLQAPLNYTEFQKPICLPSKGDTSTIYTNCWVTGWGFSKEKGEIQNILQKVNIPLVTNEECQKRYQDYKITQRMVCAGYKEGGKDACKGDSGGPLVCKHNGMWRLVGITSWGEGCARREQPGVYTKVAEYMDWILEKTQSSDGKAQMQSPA
# T1 sequence (P03952 20-390 partner limits assumed): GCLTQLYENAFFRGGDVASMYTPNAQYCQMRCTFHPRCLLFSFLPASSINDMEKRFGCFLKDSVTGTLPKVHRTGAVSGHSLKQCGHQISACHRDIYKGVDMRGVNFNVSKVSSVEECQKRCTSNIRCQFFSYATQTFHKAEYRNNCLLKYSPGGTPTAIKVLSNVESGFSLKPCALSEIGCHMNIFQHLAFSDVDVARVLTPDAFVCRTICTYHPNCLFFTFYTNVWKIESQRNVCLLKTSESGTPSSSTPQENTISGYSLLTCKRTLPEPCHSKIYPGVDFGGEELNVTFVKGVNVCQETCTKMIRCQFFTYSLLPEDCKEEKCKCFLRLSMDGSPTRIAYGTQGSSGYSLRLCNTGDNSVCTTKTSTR
# In short: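 Human plasma kallikrein preincubated 5 min at 37 °C with compound in 50 mM Tris-HCl pH 7.5, 150 mM NaCl, 0.01% Triton X-100. Reaction started with Pro-Phe-Arg-AMC, fluorescence read every 43 s for 1 h at 37 °C. IC50 from highest mean velocity over 20 reads (~15 min).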
# human Plasma Kallikrein [2] = molecular target: T1, human Plasma Kallikrein; assay: Human whole blood kallikrein inhibition (ellagic acid-activated human plasma, Z-FR-2-AMC substrate); format: biochemical
# Experimental: The ability of the compounds disclosed herein to inhibit human plasma kallikrein activity was quantified according to the procedures below.
# All dilutions were prepared in an assay buffer comprising 50 mM Tris-HCl pH 7.2, 150 mM NaCl, and 0.01% Triton X-100.
# Human plasma was thawed on ice and centrifuged for 15 min at 4° C. to remove platelets. A 1 mM stock solution of ellagic acid was diluted to 8 μM and mixed with human plasma, after removing platelets, at a ratio of 1:0.8. The mixture of human plasma and ellagic acid was further diluted 32-fold in the assay buffer, to yield the final mixture for use in the inhibition assay.
# A 22.5 μL volume of the final mixture of human plasma and ellagic acid was added to a 96-well microwell plate and the plate was incubated for 15 min at 37° C.
# The test compound solution was prepared to provide final concentrations of 20 μM, 5 μM, 1.25 μM, 312.5 nM, 78.125 nM, 19.531 nM, 4.883 nM, 1.221 nM, 0.305 nM, and 0.076 nM. Each test compound concentration was tested in duplicates.
# In addition to the inhibitor control and test wells, the 96 well assay plate included positive control wells which contain the mixture of human plasma and ellagic acid without test compounds, and background wells which contain neither the mixture of human plasma and ellagic acid nor the test compounds. The total volume of liquid in positive control and background wells was brought up to 35 μL using the assay buffer.
# The assay plate containing test compounds mixed with human plasma and ellagic acid and appropriate controls was incubated at 37° C. for 5 min. A 10 mM stock solution of substrate Z-FR-2-AMC was diluted to 133.2 μM in the assay buffer, and 15 μL of the diluted substrate was added to each well, to yield a final substrate concentration of 40 μM in each well. The reagents were mixed by shaking the plate gently for 30 sec.
# The enzyme reaction was quantified by immediate kinetic reading of the assay plate using excitation/emission wavelengths of 330 nm/440 nm respectively. Fluorescence intensity was recorded for 60 min, using a time interval of 43 sec.
# The inhibition activity of the test compounds were evaluated using the IC50 values, calculated according to the dose-response curve of the test compounds, fitted using the “log(inhibitor)−response(variable slope)” equation in GraphPadPrism software (GraphPad Software, Inc.).
# The percentage inhibition (EC50) was calculated using the following equation:
# [formula] where, Mean(BG) is the average value of the fluorescence intensity of the background wells and Mean(PC) is the average value of the fluorescence intensity of the positive control wells.
# [3] = Pharmacokinetic evaluation, oral exposure in rats; format: in vivo; conditions: male Sprague-Dawley rats, single oral dose 10 mg/kg via oral gavage, plasma
# Experimental: Pharmacokinetic studies of select compounds were performed to assess the pharmacokinetic properties. Male Sprague-Dawley rats were administered a single oral dose of the test compound at 10 mg/kg (dose concentration: 2 mg/mL, dose volume: 5 ml/kg) via oral gavage. Blood samples were collected via jugular vein at pre-dose, post-dose 5 min, 15 min, 30 min, 1 h, 2 h, 4 h, 6 h, 8 h, 10 h and 24 h, and centrifuged (8000 rpm for 6 minutes at 2-8° C.). The resulting plasma fractions were analyzed by LC/MS/MS to determine the concentration of the test compound.
# [4] = human plasma activated with ellagic acid, Z-FR-2-AMC 40 μM, 37° C., read-out: HWB EC50
Compound,IC50 (human Plasma Kallikrein [1]),EC50 (human Plasma Kallikrein [2]; [4]),"AUC ([3]; rat, read-out: AUC)",EC50 (human Plasma Kallikrein [2]),AUC [3]
"Cc1cc(N)nc(C)c1CNC(=O)c1cn(Cc2ccc3ncc(Cl)cc3c2)cn1 [Example 3, N-((6-amino-2,4-dimethylpyridin-3-yl)methyl)-1-((3-chloroquinolin-6-yl)methyl)-1H-imidazole-4-carboxamide]",< 100 nM,< 100 nM,100 to 1000 ng·h/mL,–,–
"Cc1cc(N)nc(C)c1CNC(=O)c1nc(Cc2ccc3ncc(Cl)cc3c2)n2ccccc12 [Example 9, N-((6-amino-2,4-dimethylpyridin-3-yl)methyl)-3-((3-chloroquinolin-6-yl)methyl)imidazo[1,5-a]pyridine-1-carboxamide]",< 100 nM,< 100 nM,100 to 1000 ng·h/mL,–,–
"Cc1cc(N)nc(C)c1CNC(=O)c1cn(Cc2ccc3ncc(Cl)cc3c2)nn1 [Example 10, N-((6-amino-2,4-dimethylpyridin-3-yl)methyl)-1-((3-chloroquinolin-6-yl)methyl)-1H-1,2,3-triazole-4-carboxamide]",< 100 nM,< 100 nM,1000 to 10000 ng·h/mL,–,–
"Cc1cc(N)nc(C)c1CNC(=O)c1nnc(Cc2ccc3ncc(Cl)cc3c2)[nH]1 [Example 96, N-((6-amino-2,4-dimethylpyridin-3-yl)methyl)-5-((3-chloroquinolin-6-yl)methyl)-4H-1,2,4-triazole-3-carboxamide]",< 100 nM,< 100 nM,> 10000 ng·h/mL,–,–
"Cc1cc(N)nc(C)c1CNC(=O)c1cn(Cc2ccc3ncc(Cl)cc3c2)nc1CN [Example 27, N-((6-amino-2,4-dimethylpyridin-3-yl)methyl)-3-(aminomethyl)-1-((3-chloroquinolin-6-yl)methyl)-1H-pyrazole-4-carboxamide]",< 100 nM,< 100 nM,< 100 ng·h/mL,–,–
"Cc1cc(N)nc(C)c1CNC(=O)c1nn(Cc2ccc3ncc(Cl)cc3c2)nc1C#N [Example 95, N-((6-amino-2,4-dimethylpyridin-3-yl)methyl)-2-((3-chloroquinolin-6-yl)methyl)-5-cyano-2H-1,2,3-triazole-4-carboxamide]",< 100 nM,< 100 nM,100 to 1000 ng·h/mL,–,–
"Cc1cc(N)nc(C)c1CNC(=O)c1nnc(Cc2cc(F)c3ncc(Cl)cc3c2)o1 [Example 75, N-((6-amino-2,4-dimethylpyridin-3-yl)methyl)-5-((3-chloro-8-fluoroquinolin-6-yl)methyl)-1,3,4-oxadiazole-2-carboxamide]",< 100 nM,< 100 nM,1000 to 10000 ng·h/mL,–,–
"COc1cc2c(C(=O)NCc3c(C)cc(N)nc3C)nn(Cc3ccc4ncc(Cl)cc4c3)c2cn1 [Example 122, N-((6-amino-2,4-dimethylpyridin-3-yl)methyl)-1-((3-chloroquinolin-6-yl)methyl)-5-methoxy-1H-pyrazolo[3,4-c]pyridine-3-carboxamide]",< 100 nM,–,100 to 1000 ng·h/mL,< 100 nM,–
"Cc1nc(N)ccc1CNC(=O)c1cn(Cc2ccc3ncc(C4CC4)cc3c2)nc1C#N [Example 66, N-((6-amino-2-methylpyridin-3-yl)methyl)-3-cyano-1-((3-cyclopropylquinolin-6-yl)methyl)-1H-pyrazole-4-carboxamide]",< 100 nM,< 100 nM,100 to 1000 ng·h/mL,–,–
"Cc1cnc2ccc(Cn3cc(C(=O)NCc4ccc(N)nc4C)c(C#N)n3)cc2c1 [Example 82, N-((6-amino-2-methylpyridin-3-yl)methyl)-3-cyano-1-((3-methylquinolin-6-yl)methyl)-1H-pyrazole-4-carboxamide]",< 100 nM,< 100 nM,100 to 1000 ng·h/mL,–,–
"Cc1cc(N)nc(C)c1CNC(=O)c1cn(Cc2ccc3ncc(Cl)cc3c2)c(N)n1 [Example 28, 2-amino-N-((6-amino-2,4-dimethylpyridin-3-yl)methyl)-1-((3-chloroquinolin-6-yl)methyl)-1H-imidazole-4-carboxamide]",< 100 nM,< 100 nM,< 100 ng·h/mL,–,–
"Cc1cc(N)nc(C)c1CNC(=O)c1nn(Cc2ccc3ncc(Cl)cc3c2)c2ccccc12 [Example 13, N-((6-amino-2,4-dimethylpyridin-3-yl)methyl)-1-((3-chloroquinolin-6-yl)methyl)-1H-indazole-3-carboxamide]",< 100 nM,–,100 to 1000 ng·h/mL,< 100 nM,–
"Cc1cc(N)nc(C)c1CNC(=O)c1cn(Cc2ccc3ncc(Cl)cc3c2)c2ccncc12 [Example 35, N-((6-amino-2,4-dimethylpyridin-3-yl)methyl)-1-((3-chloroquinolin-6-yl)methyl)-1H-pyrrolo[3,2-c]pyridine-3-carboxamide]",< 100 nM,–,–,< 100 nM,BLQ
"Cc1cc(N)nc(C)c1CNC(=O)c1nnc(Cc2ccc3ncc(Cl)cc3c2)o1 [Example 30, N-((6-amino-2,4-dimethylpyridin-3-yl)methyl)-5-((3-chloroquinolin-6-yl)methyl)-1,3,4-oxadiazole-2-carboxamide]",< 100 nM,< 100 nM,1000 to 10000 ng·h/mL,–,–
"Cc1cc(N)nc(C)c1CNC(=O)c1cn(Cc2ccc3ncc(Cl)cc3c2)c2cnc(C#N)cc12 [Example 134, N-((6-amino-2,4-dimethylpyridin-3-yl)methyl)-1-((3-chloroquinolin-6-yl)methyl)-5-cyano-1H-pyrrolo[2,3-c]pyridine-3-carboxamide]",< 100 nM,–,–,< 100 nM,BLQ
"Cc1cc(N)nc(C)c1CNC(=O)c1cnc(Cc2ccc3ncc(Cl)cc3c2)[nH]1 [Example 5, N-((6-amino-2,4-dimethylpyridin-3-yl)methyl)-2-((3-chloroquinolin-6-yl)methyl)-1H-imidazole-5-carboxamide]",< 100 nM,< 100 nM,–,–,BLQ
"Cc1cc(N)nc(C)c1CNC(=O)c1nn(Cc2ccc3ncc(Cl)cc3c2)c2ccc(=O)[nH]c12 [Example 138, N-((6-amino-2,4-dimethylpyridin-3-yl)methyl)-1-((3-chloroquinolin-6-yl)methyl)-5-oxo-4,5-dihydro-1H-pyrazolo[4,3-b]pyridine-3-carboxamide]",< 100 nM,–,< 100 ng·h/mL,< 100 nM,–
"Cc1cnc2c(S(C)(=O)=O)cc(Cn3cc(C(=O)NCc4c(C)cc(N)nc4C)c(C#N)n3)cc2c1 [Example 61, N-((6-amino-2,4-dimethylpyridin-3-yl)methyl)-3-cyano-1-((3-methyl-8-(methylsulfonyl)quinolin-6-yl)methyl)-1H-pyrazole-4-carboxamide]",< 100 nM,< 100 nM,< 100 ng·h/mL,–,–
"CC(C)(O)c1cc(Cn2cc(C(=O)NCc3ccc4c(N)nccc4c3)c(C#N)n2)cc2cc(Cl)cnc12 [Example 59, N-((1-aminoisoquinolin-6-yl)methyl)-1-((3-chloro-8-(2-hydroxypropan-2-yl)quinolin-6-yl)methyl)-3-cyano-1H-pyrazole-4-carboxamide]",< 100 nM,< 100 nM,< 100 ng·h/mL,–,–
"Cc1cc(N)nc(C)c1CNC(=O)c1cnn(Cc2ccc3ncc(Cl)cc3c2)c1 [Example 2, N-((6-amino-2,4-dimethylpyridin-3-yl)methyl)-1-((3-chloroquinolin-6-yl)methyl)-1H-pyrazole-4-carboxamide]",< 100 nM,< 100 nM,100 to 1000 ng·h/mL,–,–
"Cc1cc(N)nc(C)c1CNC(=O)c1ncn(Cc2ccc3ncc(Cl)cc3c2)n1 [Example 4, N-((6-amino-2,4-dimethylpyridin-3-yl)methyl)-1-((3-chloroquinolin-6-yl)methyl)-1H-1,2,4-triazole-3-carboxamide]",< 100 nM,< 100 nM,< 100 ng·h/mL,–,–
